Results as given in US11590139B2, “Substituted aminopurine compounds, compositions thereof, and methods of treatment therewith” (Signal Pharmaceuticals, LLC, priority 2014, dated 2023).

Each compound was assayed on Lox-IMVI melanoma cell line (assay: Lox-IMVI anti-proliferative assay (growth inhibition, Cell Titer-Glo)). Conditions: Homo sapiens; IC50 activity level in the cell-based Lox-IMVI anti-proliferative assay; read-out: Activity.
Assay type: cell-based, human
Summary of the method: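 Growth inhibition is assessed over 72 h in RPMI + 10% FBS at 0.2% DMSO, with ATP-based luminescence used as the viability measure. IC50 is fitted from normalized dose-response data.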

| SMILES | IC50 [µM] |
| --- | --- |
| NC(=O)[C@H]1CC[C@@H](n2c(Nc3c(Cl)cc(Cl)cc3Cl)nc3cnc(N[C@H]4CCOC[C@@H]4F)nc32)CC1 [Example 246, (1R,4s)-4-(2-((3R,4S)-3-fluorotetrahydro-2H-pyran-4-ylamino)-8-(2,4,6-trichlorophenylamino)-9H-purin-9-yl)cyclohexanecarboxamide] | 0.5 to 1 |
| CC[C@@H](CO)Nc1ncc2nc(Nc3c(F)cc(F)cc3F)n([C@H]3CC[C@@H](C(N)=O)CC3)c2n1 [Example 143, (1R,4s)-4-(2-((S)-1-hydroxybutan-2-ylamino)-8-(2,4,6-trifluorophenylamino)-9H-purin-9-yl)cyclohexanecarboxamide] | > 1 |
| NC(=O)[C@H]1CC[C@@H](n2c(Nc3c(F)cc(F)cc3F)nc3cnc(N[C@H]4CCOC[C@H]4F)nc32)CC1 [Example 306, (1R,4s)-4-(2-((3S,4S)-3-fluorotetrahydro-2H-pyran-4-ylamino)-8-(2,4,6-trifluorophenylamino)-9H-purin-9-yl)cyclohexanecarboxamide] | 0.25 to 0.5 |
| NC(=O)[C@H]1CC[C@@H](n2c(Nc3c(Cl)cccc3Cl)nc3cnc(N[C@H]4CC[C@H](O)C4)nc32)CC1 [Example 327, (1R,4s)-4-(8-(2,6-dichlorophenylamino)-2-((1S,3S)-3-hydroxycyclopentylamino)-9H-purin-9-yl)cyclohexanecarboxamide] | 0.5 to 1 |
| NC(=O)[C@H]1CC[C@@H](n2c(Nc3c(F)cc(F)cc3F)nc3cnc(NC4COCC4O)nc32)CC1 (stereo partly shown) [Example 178, (1s,4s)-4-(2-(4-hydroxytetrahydrofuran-3-ylamino)-8-(2,4,6-trifluorophenylamino)-9H-purin-9-yl)cyclohexanecarboxamide] | > 1 |
| CC(C)(C)OC(=O)N1CCC[C@@H](Nc2ncc3nc(Nc4c(Cl)cccc4Cl)n([C@H]4CC[C@@H](C(N)=O)CC4)c3n2)C1 [Example 160, (R)-tert-butyl 3-(9-((1s,4S)-4-carbamoylcyclohexyl)-8-(2,6-dichlorophenylamino)-9H-purin-2-ylamino)piperidine-1-carboxylate] | > 1 |
| N#Cc1cc(F)c(Nc2nc3cnc(NC4CCOCC4)nc3n2[C@H]2CC[C@@H](C(N)=O)CC2)c(F)c1 [Example 309, (1s,4s)-4-(8-(4-cyano-2,6-difluorophenylamino)-2-(tetrahydro-2H-pyran-4-ylamino)-9H-purin-9-yl)cyclohexanecarboxamide] | < 0.25 |
| NC(=O)[C@H]1CC[C@@H](n2c(Nc3cc(F)c(Cl)cc3F)nc3cnc(NC4CCC(F)(F)CC4)nc32)CC1 [Example 238, (1s,4s)-4-(8-(4-chloro-2,5-difluorophenylamino)-2-(4,4-difluorocyclohexylamino)-9H-purin-9-yl)cyclohexanecarboxamide] | > 1 |
| CC[C@H](C)Nc1ncc2nc(Nc3c(F)cc(Cl)cc3Cl)n([C@H]3CC[C@@H](C(N)=O)CC3)c2n1 [Example 339, (1R,4s)-4-(2-(sec-butylamino)-8-(2,4-dichloro-6-fluorophenylamino)-9H-purin-9-yl)cyclohexanecarboxamide] | 0.5 to 1 |
| NC(=O)[C@H]1CC[C@@H](n2c(Nc3c(Cl)cc(Cl)cc3Cl)nc3cnc(NC4COCC4O)nc32)CC1 (stereo partly shown) [Example 181, (1s,4s)-4-(2-(4-hydroxytetrahydrofuran-3-ylamino)-8-(2,4,6-trichlorophenylamino)-9H-purin-9-yl)cyclohexanecarboxamide] | 0.5 to 1 |
| NC(=O)[C@H]1CC[C@@H](n2c(Nc3cc(Cl)ccc3F)nc3cnc(N[C@@H]4CCC[C@H]4O)nc32)CC1 [Example 262, (1S,4s)-4-(8-(5-chloro-2-fluorophenylamino)-2-((1R,2R)-2-hydroxycyclopentylamino)-9H-purin-9-yl)cyclohexanecarboxamide] | > 1 |
| NC(=O)[C@H]1CC[C@@H](n2c(Nc3ccc(Cl)cc3Cl)nc3cnc(NC4CCC(F)(F)CC4)nc32)CC1 [Example 240, (1s,4s)-4-(8-(2,4-dichlorophenylamino)-2-(4,4-difluorocyclohexylamino)-9H-purin-9-yl)cyclohexanecarboxamide] | > 1 |

Further lines, results first:

| IC50 [µM] | SMILES |
| --- | --- |
| 0.25 to 0.5 | NC(=O)[C@H]1CC[C@@H](n2c(Nc3c(Cl)cc(Cl)cc3Cl)nc3cnc(N[C@@H]4CCC[C@H](O)C4)nc32)CC1 [Example 353, (1S,4s)-4-(2-((1R,3S)-3-hydroxycyclohexylamino)-8-(2,4,6-trichlorophenylamino)-9H-purin-9-yl)cyclohexanecarboxamide] |
| > 1 | C[C@@H]1CC[C@@H](Nc2ncc3nc(Nc4c(Cl)cccc4Cl)n([C@H]4CC[C@@H](C(N)=O)CC4)c3n2)C[C@H]1O [Example 345, (1S,4s)-4-(8-(2,6-dichlorophenylamino)-2-((1R,3R,4R)-3-hydroxy-4-methylcyclohexylamino)-9H-purin-9-yl)cyclohexanecarboxamide] |

Same assay, conditions: Homo sapiens; Lox-IMVI anti-proliferative assay, IC50 activity level; read-out: Activity

| IC50 [µM] | SMILES |
| --- | --- |
| < 0.25 | NC(=O)[C@H]1CC[C@@H](n2c(Nc3c(F)cc(F)cc3F)nc3cnc(N[C@@H]4CCC(F)(F)C4)nc32)CC1 [Example 545, (1S,4s)-4-(2-((R)-3,3-difluorocyclopentylamino)-8-(2,4,6-trifluorophenylamino)-9H-purin-9-yl)cyclohexanecarboxamide] |
| > 1 | C[C@]1(C(N)=O)CC[C@H](n2c(Nc3c(F)cc(C#N)cc3F)nc3cnc(NC4CCCC4)nc32)CC1 [Example 487, (1r,4r)-4-(8-(4-cyano-2,6-difluorophenylamino)-2-(cyclopentylamino)-9H-purin-9-yl)-1-methylcyclohexanecarboxamide] |
| < 0.25 | N#Cc1cc(F)c(Nc2nc3cnc(NC4CCCOCC4)nc3n2[C@H]2CC[C@@H](C(N)=O)CC2)c(Cl)c1 (stereo partly shown) [Example 543, (1s,4s)-4-(8-(2-chloro-4-cyano-6-fluorophenylamino)-2-(oxepan-4-ylamino)-9H-purin-9-yl)cyclohexanecarboxamide] |
| < 0.25 | C[C@@H](CO)Nc1ncc2nc(Nc3c(F)cc(C#N)cc3Cl)n([C@H]3CC[C@@](C)(C(N)=O)CC3)c2n1 [Example 552, (1R,4s)-4-(8-(2-chloro-4-cyano-6-fluorophenylamino)-2-((S)-1-hydroxypropan-2-ylamino)-9H-purin-9-yl)-1-methylcyclohexanecarboxamide] |
| > 1 | C[C@]1(C(N)=O)CC[C@H](n2c(Nc3c(Cl)cc(F)cc3Cl)nc3cnc(NC4CCC(F)(F)CC4)nc32)CC1 [Example 476, (1r,4r)-4-(8-(2,6-dichloro-4-fluorophenylamino)-2-(4,4-difluorocyclohexylamino)-9H-purin-9-yl)-1-methylcyclohexanecarboxamide] |
| > 1 | N#Cc1cc(F)c(Nc2nc3cnc(N[C@H]4CCCC[C@H](O)C4)nc3n2[C@H]2CC[C@@H](C(N)=O)CC2)c(Cl)c1 [Example 448, (1R,4s)-4-(8-(2-chloro-4-cyano-6-fluorophenylamino)-2-((1S,3S)-3-hydroxycycloheptylamino)-9H-purin-9-yl)cyclohexanecarboxamide] |

Same assay, conditions: Homo sapiens; Lox-IMVI melanoma cell line, anti-proliferative assay; read-out: Activity (IC50 activity level)

| IC50 [µM] | SMILES |
| --- | --- |
| < 0.25 | C[C@@H]1COCC[C@H]1Nc1ncc2nc(Nc3c(F)cc(F)cc3Cl)n([C@H]3CC[C@@H](C(N)=O)CC3)c2n1 [Example 723, (1S,4s)-4-(8-(2-chloro-4,6-difluorophenylamino)-2-((3S,4R)-3-methyltetrahydro-2H-pyran-4-ylamino)-9H-purin-9-yl)cyclohexanecarboxamide] |
| > 1 | CNC(=O)N1CCC[C@@H](Nc2ncc3nc(Nc4c(Cl)cc(Cl)cc4Cl)n([C@H]4CC[C@@H](C(N)=O)CC4)c3n2)C1 [Example 705, (R)-3-(9-((1s,4S)-4-carbamoylcyclohexyl)-8-(2,4,6-trichlorophenylamino)-9H-purin-2-ylamino)-N-methylpiperidine-1-carboxamide] |
| > 1 | CS(=O)(=O)N1CCC[C@@H](Nc2ncc3nc(Nc4c(F)cc(C#N)cc4Cl)n([C@H]4CC[C@@H](C(N)=O)CC4)c3n2)C1 [Example 704, (1S,4s)-4-(8-(2-chloro-4-cyano-6-fluorophenylamino)-2-((R)-1-(methylsulfonyl)piperidin-3-ylamino)-9H-purin-9-yl)cyclohexanecarboxamide] |
| < 0.25 | C[C@]1(C(N)=O)CC[C@@H](n2c(Nc3c(Cl)cc(C#N)cc3Cl)nc3cnc(N[C@@H]4CCOC[C@H]4F)nc32)CC1 [Example 760, (1S,4s)-4-(8-(2,6-dichloro-4-cyanophenylamino)-2-((3S,4R)-3-fluorotetrahydro-2H-pyran-4-ylamino)-9H-purin-9-yl)-1-methylcyclohexanecarboxamide] |
| > 1 | CC(C)OC(=O)N1CCC[C@@H](Nc2ncc3nc(Nc4c(F)cc(C#N)cc4F)n([C@H]4CC[C@@H](C(N)=O)CC4)c3n2)C1 [Example 771, (R)-isopropyl 3-(9-((1s,4S)-4-carbamoylcyclohexyl)-8-(4-cyano-2,6-difluorophenylamino)-9H-purin-2-ylamino)piperidine-1-carboxylate] |
| 0.25 to 0.5 | C[C@]1(C(N)=O)CC[C@@H](n2c(Nc3c(Cl)cc(C#N)cc3Cl)nc3cnc(N[C@H]4CC[C@H](O)C4)nc32)CC1 [Example 650, (1R,4s)-4-(8-(2,6-dichloro-4-cyanophenylamino)-2-((1S,3S)-3-hydroxycyclopentylamino)-9H-purin-9-yl)-1-methylcyclohexanecarboxamide] |
| > 1 | NC(=O)[C@H]1CC[C@@H](n2c(Nc3c(Cl)cc(F)cc3Cl)nc3cnc(N[C@@H]4CCCN(Cc5ccccc5)C4)nc32)CC1 [Example 759, (1S,4s)-4-(2-((R)-1-benzylpiperidin-3-ylamino)-8-(2,6-dichloro-4-fluorophenylamino)-9H-purin-9-yl)cyclohexanecarboxamide] |

| SMILES | IC50 [µM] |
| --- | --- |
| C[C@@H](CO)Nc1ncc2nc(Nc3ccc(C#N)c(Cl)c3Cl)n([C@H]3CC[C@@H](C(N)=O)CC3)c2n1 [Example 694, (1R,4s)-4-(8-(2,3-dichloro-4-cyanophenylamino)-2-((S)-1-hydroxypropan-2-ylamino)-9H-purin-9-yl)cyclohexanecarboxamide] | > 1 |
